# Data reported in PubChem BioAssay (NCI).
# Several values for one entry are separate records, joined by “and”; a condition that tells them apart may be missing. Equal values may be shown once.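 Interpolation was linear, between the two tested concentrations surrounding the appropriate level; five concentrations were tested over 48 hours in 96-well plates. The concentration for 50% growth inhibition is given as GI50. Definition used: TGI = concentration required for complete inhibition of growth.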
# Key:
# Experiment in all cases: NCI tumour cell line growth inhibition, 48 h
# [1] = system: OVCAR-4 ovarian
# [2] = system: A498 renal
# [3] = system: HL-60(TB) leukemia
# [4] = system: CCRF-CEM leukemia
# [5] = system: MDA-MB-435
# [6] = system: COLO 205 colon
# [7] = system: RXF 393 renal
# [8] = system: MALME-3M melanoma
# [9] = system: HOP-92 NSCLC
# [10] = system: T-47D breast
Structure (SMILES),GI50 [1],TGI [1],GI50 [2],TGI [2],GI50 [3],TGI [3],GI50 [4],TGI [4],GI50 [5],TGI [5],GI50 [6],TGI [6],GI50 [7],TGI [7],GI50 [8],TGI [8],GI50 [9],TGI [9],GI50 [10],TGI [10]
COC(=O)c1ccc2[nH]c(O)c(C(=Nc3ccc(N(C)C(=O)CN4CCN(C)CC4)cc3)c3ccc4c(c3)OCO4)c2c1,0.761 µM,2.72 µM,0.703 µM,2.18 µM,0.415 µM,1.82 µM,0.388 µM,6.25 µM,0.724 µM,2.19 µM,0.369 µM,1.74 µM,0.36 µM,1.52 µM,0.895 µM,2.29 µM,2.09 µM,7.75 µM,0.739 µM,8 µM
C=C(C)[C@@H]1CC[C@]2(COCCCN)CC[C@]3(C)[C@H](CC[C@@H]4[C@@](C)(CCCNCCCN)[C@H](C(=C)C)CC[C@]43C)[C@@H]12,1.72 µM,3.17 µM,14.5 µM,37.1 µM,1.64 µM,3.47 µM,2.39 µM,7.34 µM,1.84 µM,3.41 µM,1.78 µM,3.48 µM,1.59 µM,2.98 µM,1.66 µM,3.12 µM,1.36 µM,2.84 µM,1.78 µM,3.63 µM
O=C(Oc1ccc[nH]c1=O)c1cc([N+](=O)[O-])cc([N+](=O)[O-])c1,> 100 µM,> 100 µM,> 100 µM,> 100 µM,53.6 µM,> 100 µM,79 µM,> 100 µM,51.3 µM,> 100 µM,> 100 µM,> 100 µM,> 100 µM,> 100 µM,51.7 µM,> 100 µM,> 100 µM,> 100 µM,73.2 µM,> 100 µM
CNC(=O)OCc1nc(SSC(C)(C)C)n(C)c1COC(=O)NC,,4.3 µM,,20.4 µM,,2.66 µM,,4.54 µM,,16 µM,,3.28 µM,,2.84 µM,,3.76 µM,,3.67 µM,,7.4 µM
O=C1C(=O)c2ccccc2C(O)=C1C(C1=C(O)c2ccccc2C(=O)C1=O)c1ccc(Cl)cc1,,18.6 µM,,34 µM,,4.83 µM,,> 46 µM,,3.38 µM,,35.6 µM,,18.4 µM,,12 µM,,44.1 µM,,> 57.7 µM
COc1cc(C2c3cc4c(cc3OC(C)(N3CCCC3)C2C)OCO4)cc(OC)c1OC (stereo unspecified),,> 100 µM,,5.7 µM,,0.685 µM,,> 50.3 µM,,0.377 µM,,0.528 µM,,2.93 µM,,> 55.2 µM,,33.6 µM,,> 100 µM
O=C(O)c1ccc(CN2CCC(CN[C@@H]3C[C@H]3c3ccccc3)CC2)cc1,> 100 µM,> 100 µM,> 100 µM,> 100 µM,> 100 µM,> 100 µM,> 100 µM,> 100 µM,> 100 µM,> 100 µM,> 100 µM,> 100 µM,> 100 µM,> 100 µM,> 100 µM,> 100 µM,> 100 µM,> 100 µM,> 100 µM,> 100 µM
CCN(CC)CCCC(CCl)Nc1ccnc2cc(Cl)ccc12 (stereo unspecified),35.8 µM and 30.9 µM,> 100 µM,24.2 µM and 22 µM,64.3 µM and 51.1 µM,15.5 µM and 7.99 µM,72.8 µM and > 31.6 µM,13.7 µM and 16.9 µM,39.7 µM and 51.5 µM,14.6 µM and 6.64 µM,28.3 µM and 19.3 µM,29.5 µM and 15.1 µM,> 100 µM,4.95 µM and 10.6 µM,24.5 µM and > 49.1 µM,8.53 µM and 4.95 µM,21.1 µM and 20.1 µM,11.2 µM and 14.5 µM,36.6 µM and 42.1 µM,49.2 µM and 34.1 µM,> 100 µM
CCN1C(=O)c2ccc3c4c(ccc(c24)C1=O)C(=O)N(CCCNCc1ccccc1OC)C3=O,0.152 µM,0.345 µM,0.383 µM,1.99 µM,1.11 µM,3.6 µM,0.793 µM,9.41 µM,0.173 µM,0.322 µM,0.201 µM,0.382 µM,0.671 µM,2.04 µM,0.186 µM,0.391 µM,2.6 µM,5.5 µM,1 µM,3.29 µM
Cc1nnc(-c2ccc(C)c(-c3ccc(C(=O)Nc4cccc(C#N)c4)cc3)c2)o1,17.7 µM,> 25 µM,> 25 µM,> 25 µM,> 25 µM,> 25 µM,> 25 µM,> 25 µM,> 25 µM,> 25 µM,> 25 µM,> 25 µM,> 25 µM,> 25 µM,> 25 µM,> 25 µM,> 25 µM,> 25 µM,> 15.9 µM,> 25 µM
C=C(C)C1CC2(C)C(C)CC(O)CC2C(OC(=O)C=C(C)C)C1O (stereo unspecified),,> 100 µM,,> 100 µM,,50.5 µM,,84.7 µM,,> 100 µM,,32.4 µM,,> 100 µM,,> 100 µM,,> 100 µM,,> 100 µM
CC1(C)N=C(N)N=C(N)N1c1ccc(CCC(=O)Nc2ccc(S(=O)(=O)F)cc2)c(Cl)c1,5.51 µM,> 100 µM,61.9 µM,> 100 µM,0.142 µM,> 100 µM,0.522 µM,> 100 µM,0.296 µM,> 100 µM,2.52 µM,> 100 µM,> 45.4 µM,> 100 µM,19.9 µM,> 100 µM,6.54 µM,> 100 µM,12.4 µM,> 100 µM
CN(c1ccc(NC(=O)Nc2c(Cl)cccc2Cl)cc1)c1ccnc(Nc2cccc(CS(C)(=O)=O)c2)n1,3.12 µM,12.5 µM,4.4 µM,> 20.3 µM,24.6 µM,> 25 µM,0.109 µM,> 25 µM,2.26 µM,10.9 µM,0.16 µM,11.9 µM,2.23 µM,8.08 µM,1.53 µM,> 14.4 µM,2.88 µM,12 µM,4.46 µM,13.2 µM
CCCCCCCCn1ccc2cc(NC(=O)Cn3cc(CN4CCCCCC4)nn3)ccc21,1.59 µM,3.13 µM,1.76 µM,3.2 µM,1.87 µM,3.75 µM,2.25 µM,7.41 µM,1.69 µM,3.18 µM,1.68 µM,3.25 µM,1.66 µM,3.24 µM,1.67 µM,3.2 µM,1.26 µM,2.61 µM,1.66 µM,3.78 µM
CCCCCCCCCCCCCCCCCCOC[C@H](COP(=O)(O)O[C@H]1[C@H](O)[C@@H](O)[C@H](O)C[C@H]1O)OC,> 100 µM and 16 µM,> 100 µM and 36.8 µM,,> 100 µM,35 µM and 9.09 µM,> 100 µM and 23.3 µM,,12.7 µM and 46 µM,65.9 µM and 11.8 µM,> 100 µM and 43.8 µM,26.6 µM and 11 µM,> 100 µM and 24.2 µM,35.4 µM and 5.76 µM,> 100 µM and 21.1 µM,> 100 µM and 18.3 µM,> 100 µM and 33.9 µM,29.4 µM and 12.3 µM,> 100 µM and 25.3 µM,> 100 µM and 16.9 µM,> 100 µM and 37.4 µM
C[C@]12CCc3sc(Nc4ccc(OC(F)(F)F)cc4)nc3C1=CC[C@@H]1[C@@H]2CC[C@]2(C)C(=O)CC[C@@H]12,3.31 µM,25.8 µM,2.09 µM,5.77 µM,1.93 µM,4.44 µM,1.42 µM,> 100 µM,2.72 µM,10.1 µM,2.61 µM,6.76 µM,0.5 µM,2.21 µM,3.45 µM,16.8 µM,1.43 µM,3.44 µM,2.15 µM,6.43 µM
COc1ccc2c(c1)NC1=C(C(=O)OC1)C2c1cc(OC)c(OC)c(OC)c1 (stereo unspecified),< 0.0375 µM,> 100 µM,< 0.01 µM,< 0.01 µM,< 0.01 µM,< 0.01 µM,< 0.01 µM,> 100 µM,< 0.01 µM,< 0.0164 µM,< 0.01 µM,< 0.01 µM,< 0.01 µM,61.8 µM,26 µM,> 100 µM,< 0.0112 µM,> 100 µM,25.6 µM,> 100 µM
CN(C)CCC(=O)N1C/C(=C\c2ccc(Cl)c(Cl)c2)C(=O)/C(=C/c2ccc(Cl)c(Cl)c2)C1,,0.777 µM,,4.6 µM,,0.162 µM,,0.738 µM,,1.6 µM,,0.636 µM,,0.747 µM,,1.51 µM,,0.977 µM,,2.48 µM
COCCOC(=O)C1=C(O)c2ccccc2S(=O)(=O)N1C,,> 100 µM,,> 100 µM,,> 100 µM,,> 100 µM,,> 100 µM,,> 100 µM,,> 100 µM,,> 100 µM,,> 100 µM,,> 100 µM
C#CC1(O)C(COP(=O)(O)OCC(COP(=O)(O)OCC2OC(n3cc(F)c(=O)[nH]c3=O)CC2O)OCCCCCCCCCCCCCCCCCC)OC(n2ccc(N)nc2=O)C1O (stereo unspecified),0.992 µM,> 100 µM,0.421 µM,12.1 µM,0.982 µM,> 100 µM,0.217 µM,> 39.7 µM,0.566 µM,> 27.2 µM,< 0.0202 µM,1.07 µM,0.393 µM,6.33 µM,0.102 µM,5.36 µM,0.764 µM,,3.72 µM,> 51.3 µM
CN(C)Cc1cc(C(F)(F)F)ccc1C(O)(c1ccccc1)c1ccccc1,,37.5 µM,,24.7 µM,,24.7 µM,,28.9 µM,,58 µM,,20.8 µM,,25.4 µM,,33.9 µM,,27 µM,,47.3 µM
O=C(NC(=O)c1c(F)cccc1F)Nc1cccc(Oc2ncc(Cl)cn2)c1,,> 100 µM,,> 100 µM,,> 100 µM,,> 100 µM,,> 22.8 µM,,> 100 µM,,79.5 µM,,> 100 µM,,70.9 µM,,> 100 µM
NC(CSC(c1ccccc1)(c1ccccc1)c1ccccc1)C(=O)NCC(=O)O (stereo unspecified),17.4 µM,95.6 µM,4.31 µM,86.1 µM,2.85 µM,12 µM,3.68 µM,> 100 µM,2.38 µM,6.8 µM,3.39 µM,> 100 µM,2.84 µM,19.5 µM,5.3 µM,> 100 µM,5.01 µM,> 100 µM,11.6 µM,> 100 µM
N[C@H](C(=O)O)[C@@H]1CC(Cl)=NO1,,> 653 µM,45.5 µM,> 887 µM,4.89 µM,,5.76 µM,700 µM,25.3 µM,> 645 µM,43.6 µM,> 1000 µM,,718 µM,,542 µM,,541 µM,,> 1000 µM
C=CC(=O)N1CCC(Oc2cc3c(Nc4ccc(Cl)c(Cl)c4F)ncnc3cc2OC)CC1,2.65 µM and 2.56 µM,31.5 µM and > 10 µM,0.365 µM and 0.179 µM,1.92 µM and 0.834 µM,8.97 µM and 3.77 µM,48.5 µM and > 10 µM,2.33 µM and 3.37 µM,55.9 µM and > 10 µM,2.23 µM and 1.8 µM,8.3 µM and 4.7 µM,4.26 µM and 3.52 µM,17.4 µM and > 10 µM,0.596 µM and 0.81 µM,2.76 µM and 3.87 µM,7.36 µM and > 5.35 µM,23.9 µM and > 10 µM,0.944 µM and 0.338 µM,5.59 µM and 3.07 µM,< 0.01 µM and 0.0178 µM,25.9 µM and > 10 µM
O=C1C=CC(=O)C2C1C1(Cl)C(Cl)=C(Cl)C2(Cl)C1(Cl)Cl (stereo unspecified),7.38 µM,> 100 µM,1.46 µM,5.8 µM,2.71 µM,11 µM,3.76 µM,> 100 µM,1.69 µM,4.06 µM,11.5 µM,27.2 µM,3.66 µM,12 µM,3.23 µM,15.8 µM,1.69 µM,6.88 µM,4.95 µM,22.7 µM
NCCCNCCS,,> 100 µM,,> 100 µM,,> 100 µM,> 100 µM and 21.8 µM,> 100 µM and 72.3 µM,,> 100 µM,> 100 µM and 46.9 µM,> 100 µM,,> 100 µM,,> 100 µM,,> 100 µM,,> 100 µM
Nc1ncc(-c2cnn(C3CCNCC3)c2)cc1-c1nc2cc(Cl)ccc2o1,,,1.71 µM,3.12 µM,1.56 µM,3.2 µM,0.222 µM,0.541 µM,1.77 µM,3.36 µM,1.41 µM,2.91 µM,1.55 µM,2.92 µM,1.71 µM,3.37 µM,0.808 µM,2.14 µM,1.62 µM,3.34 µM
